Measured values: article PMC6437697 (Journal of Medicinal Chemistry, 2019)

How the values were obtained:
Test in all cases: KINOMEscan
Type in all cases: binding
ERK4 = molecular target: T1, ERK4 (Homo sapiens, UniProt P31152); conditions: read-out: % control activity remaining
T1 construct: purchased Eurofins DiscoverX KINOMEscan

[1] = molecular target: T2, ABL1(F317L)-phosphorylated (Homo sapiens, UniProt P00519, F317L); conditions: read-out: % control activity remaining
T2 construct: purchased Eurofins DiscoverX KINOMEscan

[2] = molecular target: T3, ABL1(Y253F)-phosphorylated (Homo sapiens, UniProt P00519, Y253F); conditions: read-out: % control activity remaining
T3 construct: purchased Eurofins DiscoverX KINOMEscan

[3] = molecular target: T4, EGFR(L747-E749del, A750P) (Homo sapiens, UniProt P00533, A750P/DEL747-749); conditions: read-out: % control activity remaining
T4 construct: purchased Eurofins DiscoverX KINOMEscan
T4 sequence (P00533 with tags, fused parts or gaps A750P/DEL747-749 limits assumed): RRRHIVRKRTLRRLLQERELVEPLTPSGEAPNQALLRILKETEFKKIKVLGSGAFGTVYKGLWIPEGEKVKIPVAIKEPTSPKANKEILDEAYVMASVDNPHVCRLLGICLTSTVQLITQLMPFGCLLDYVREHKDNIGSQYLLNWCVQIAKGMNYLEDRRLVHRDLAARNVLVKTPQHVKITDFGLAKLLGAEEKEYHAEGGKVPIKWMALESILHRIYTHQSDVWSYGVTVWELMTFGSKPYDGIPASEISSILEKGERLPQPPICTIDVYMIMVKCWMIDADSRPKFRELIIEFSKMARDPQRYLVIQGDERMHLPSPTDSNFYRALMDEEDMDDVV

FGFR3 = molecular target: T5, FGFR3 (Homo sapiens, UniProt P22607); conditions: read-out: % control activity remaining
T5 construct: purchased Eurofins DiscoverX KINOMEscan
T5 sequence (P22607 23-806): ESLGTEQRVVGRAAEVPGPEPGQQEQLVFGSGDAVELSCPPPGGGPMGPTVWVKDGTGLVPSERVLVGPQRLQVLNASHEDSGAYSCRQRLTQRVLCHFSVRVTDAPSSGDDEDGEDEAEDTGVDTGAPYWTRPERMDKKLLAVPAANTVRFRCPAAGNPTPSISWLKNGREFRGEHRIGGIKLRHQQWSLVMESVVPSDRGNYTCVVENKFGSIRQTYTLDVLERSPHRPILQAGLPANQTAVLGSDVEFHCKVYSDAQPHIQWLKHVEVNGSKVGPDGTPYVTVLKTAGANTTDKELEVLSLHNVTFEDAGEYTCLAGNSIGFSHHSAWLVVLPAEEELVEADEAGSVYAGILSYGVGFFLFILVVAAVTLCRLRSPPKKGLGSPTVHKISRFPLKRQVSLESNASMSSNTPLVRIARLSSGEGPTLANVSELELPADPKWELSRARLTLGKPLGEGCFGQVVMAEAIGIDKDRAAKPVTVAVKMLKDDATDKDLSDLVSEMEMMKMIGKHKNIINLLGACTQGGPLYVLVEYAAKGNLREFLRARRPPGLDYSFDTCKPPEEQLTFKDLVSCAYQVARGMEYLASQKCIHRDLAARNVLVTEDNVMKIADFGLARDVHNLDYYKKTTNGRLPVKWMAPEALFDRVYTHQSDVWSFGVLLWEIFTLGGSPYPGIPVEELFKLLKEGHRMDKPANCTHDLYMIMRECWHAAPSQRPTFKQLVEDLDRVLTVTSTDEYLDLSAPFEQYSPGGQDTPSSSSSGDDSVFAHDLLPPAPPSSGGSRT

ARK5 = molecular target: T6, ARK5 (Homo sapiens, UniProt O60285); conditions: read-out: % control activity remaining
T6 construct: purchased Eurofins DiscoverX KINOMEscan
T6 sequence (O60285 1-661): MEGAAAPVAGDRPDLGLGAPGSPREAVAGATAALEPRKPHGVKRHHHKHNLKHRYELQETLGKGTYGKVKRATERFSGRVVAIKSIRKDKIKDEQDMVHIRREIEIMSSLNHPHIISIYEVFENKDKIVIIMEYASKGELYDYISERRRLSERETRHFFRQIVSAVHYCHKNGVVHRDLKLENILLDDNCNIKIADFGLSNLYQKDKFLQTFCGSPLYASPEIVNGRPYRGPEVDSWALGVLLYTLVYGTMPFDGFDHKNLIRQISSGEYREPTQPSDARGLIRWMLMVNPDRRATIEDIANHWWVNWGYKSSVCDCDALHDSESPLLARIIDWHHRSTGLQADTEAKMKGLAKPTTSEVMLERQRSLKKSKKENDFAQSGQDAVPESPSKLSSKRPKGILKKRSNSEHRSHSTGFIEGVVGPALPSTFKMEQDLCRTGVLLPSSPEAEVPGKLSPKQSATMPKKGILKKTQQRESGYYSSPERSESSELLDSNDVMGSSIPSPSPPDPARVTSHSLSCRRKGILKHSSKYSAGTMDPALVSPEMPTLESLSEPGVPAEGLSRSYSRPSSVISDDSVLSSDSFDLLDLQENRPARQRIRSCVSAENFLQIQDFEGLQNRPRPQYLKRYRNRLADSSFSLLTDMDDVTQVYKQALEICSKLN

p38-alpha = molecular target: T7, p38-alpha (Homo sapiens, UniProt Q16539); conditions: read-out: % control activity remaining
T7 construct: purchased Eurofins DiscoverX KINOMEscan
T7 sequence (Q16539 whole entry): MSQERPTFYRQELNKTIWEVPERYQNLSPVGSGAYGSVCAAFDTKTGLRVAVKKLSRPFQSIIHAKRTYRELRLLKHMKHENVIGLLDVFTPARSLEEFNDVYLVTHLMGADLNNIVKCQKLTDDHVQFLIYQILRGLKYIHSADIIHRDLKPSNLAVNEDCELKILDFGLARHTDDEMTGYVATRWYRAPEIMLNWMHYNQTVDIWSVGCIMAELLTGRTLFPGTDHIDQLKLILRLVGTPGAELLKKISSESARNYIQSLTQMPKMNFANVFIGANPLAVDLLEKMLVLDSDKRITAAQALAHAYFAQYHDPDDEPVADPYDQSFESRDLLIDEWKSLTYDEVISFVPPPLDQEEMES

[4] = molecular target: T8, ABL1(T315I)-phosphorylated (Homo sapiens, UniProt P00519, T315I); conditions: read-out: % control activity remaining
T8 construct: purchased Eurofins DiscoverX KINOMEscan

MLCK = molecular target: T9, MLCK (Homo sapiens, UniProt Q32MK0); conditions: for remaining binding at 1 µM: read-out: % control activity remaining
T9 construct: purchased Eurofins DiscoverX KINOMEscan
T9 sequence (Q32MK0 1-819): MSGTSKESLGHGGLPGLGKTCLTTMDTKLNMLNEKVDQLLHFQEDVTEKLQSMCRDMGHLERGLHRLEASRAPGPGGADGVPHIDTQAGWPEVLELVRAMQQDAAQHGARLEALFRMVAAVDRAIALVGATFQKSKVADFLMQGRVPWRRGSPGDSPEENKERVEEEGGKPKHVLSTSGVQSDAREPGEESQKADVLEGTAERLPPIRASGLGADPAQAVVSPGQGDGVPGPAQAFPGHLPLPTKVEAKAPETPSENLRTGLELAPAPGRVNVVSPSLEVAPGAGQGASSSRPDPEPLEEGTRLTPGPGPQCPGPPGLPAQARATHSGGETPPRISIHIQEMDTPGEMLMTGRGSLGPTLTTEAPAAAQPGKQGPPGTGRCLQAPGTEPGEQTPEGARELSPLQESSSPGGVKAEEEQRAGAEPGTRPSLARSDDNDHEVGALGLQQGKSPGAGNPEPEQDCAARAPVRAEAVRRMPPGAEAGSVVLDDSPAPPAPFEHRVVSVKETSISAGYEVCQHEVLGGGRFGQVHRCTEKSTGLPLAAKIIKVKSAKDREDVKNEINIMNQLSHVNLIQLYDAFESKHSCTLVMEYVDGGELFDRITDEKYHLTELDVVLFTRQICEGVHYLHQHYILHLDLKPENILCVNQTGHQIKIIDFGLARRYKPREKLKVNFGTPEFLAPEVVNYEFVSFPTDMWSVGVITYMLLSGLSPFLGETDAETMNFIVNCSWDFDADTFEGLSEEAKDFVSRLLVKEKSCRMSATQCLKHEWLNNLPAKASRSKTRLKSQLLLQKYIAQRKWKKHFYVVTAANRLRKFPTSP

[5] = molecular target: T10, ABL1(F317I)-nonphosphorylated (Homo sapiens, UniProt P00519, F317I); conditions: read-out: % control activity remaining
T10 construct: purchased Eurofins DiscoverX KINOMEscan

GRK7 = molecular target: T11, GRK7 (Homo sapiens, UniProt Q8WTQ7); conditions: read-out: % control activity remaining
T11 construct: purchased Eurofins DiscoverX KINOMEscan
T11 sequence (Q8WTQ7 1-553): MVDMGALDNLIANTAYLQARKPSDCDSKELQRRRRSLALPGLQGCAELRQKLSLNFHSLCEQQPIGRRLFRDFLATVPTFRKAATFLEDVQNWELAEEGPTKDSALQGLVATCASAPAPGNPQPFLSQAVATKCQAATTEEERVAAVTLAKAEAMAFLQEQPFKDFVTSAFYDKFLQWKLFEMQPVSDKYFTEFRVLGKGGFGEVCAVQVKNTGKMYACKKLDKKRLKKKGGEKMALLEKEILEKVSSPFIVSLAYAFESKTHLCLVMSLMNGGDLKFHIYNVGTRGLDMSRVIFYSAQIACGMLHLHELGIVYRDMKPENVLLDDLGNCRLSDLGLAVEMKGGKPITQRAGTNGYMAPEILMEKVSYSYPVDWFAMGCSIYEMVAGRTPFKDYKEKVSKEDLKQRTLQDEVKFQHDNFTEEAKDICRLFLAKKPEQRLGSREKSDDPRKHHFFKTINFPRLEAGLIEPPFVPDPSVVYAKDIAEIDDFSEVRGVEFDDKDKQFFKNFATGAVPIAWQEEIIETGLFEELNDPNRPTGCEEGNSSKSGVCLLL

T1 sequence (P31152 whole entry): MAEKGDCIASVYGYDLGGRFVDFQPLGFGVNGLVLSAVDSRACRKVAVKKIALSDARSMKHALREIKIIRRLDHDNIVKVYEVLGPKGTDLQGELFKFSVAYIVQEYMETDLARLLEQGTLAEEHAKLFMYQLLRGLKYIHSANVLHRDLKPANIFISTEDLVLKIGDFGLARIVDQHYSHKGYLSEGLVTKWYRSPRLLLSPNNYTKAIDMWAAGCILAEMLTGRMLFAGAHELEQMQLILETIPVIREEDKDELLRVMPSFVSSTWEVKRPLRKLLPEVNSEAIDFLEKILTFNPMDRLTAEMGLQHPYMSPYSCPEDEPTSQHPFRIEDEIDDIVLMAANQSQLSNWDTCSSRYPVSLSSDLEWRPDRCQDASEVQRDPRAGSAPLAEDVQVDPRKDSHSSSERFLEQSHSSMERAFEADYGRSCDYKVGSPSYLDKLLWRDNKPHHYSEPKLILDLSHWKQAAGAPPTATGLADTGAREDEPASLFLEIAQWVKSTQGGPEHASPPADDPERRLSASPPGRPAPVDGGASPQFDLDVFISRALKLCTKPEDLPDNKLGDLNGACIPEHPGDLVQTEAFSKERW

Structure (SMILES) | remaining binding at 1 µM (ERK4) [%] | remaining binding at 1 µM [1] [%] | remaining binding at 1 µM [2] [%] | remaining binding at 1 µM [3] [%] | remaining binding at 1 µM (FGFR3) [%] | remaining binding at 1 µM (ARK5) [%] | remaining binding at 1 µM (p38-alpha) [%] | remaining binding at 1 µM [4] [%] | remaining binding at 1 µM (MLCK) [%] | remaining binding at 1 µM [5] [%] | remaining binding at 1 µM (GRK7) [%] | inhibition at 1 µM (MLCK; read-out: Probe binding inhibited) [%]
Clc1cc(NCC2CC2)c2ncc(-c3ccc4[nH]ncc4c3)n2n1 [compound 2, 6-Chloro-N-(cyclopropylmethyl)-3-(1H-indazol-5-yl)imidazo[1,2-b]pyridazin-8-amine] | 100 | 60 | 71 | 87 | 90 | 99 | 100 | 94 | 80 | 71 | 97 | 
O=C(CN1CCOCC1)N[C@H]1CC[C@H](Nc2cc(Cl)nn3c(-c4ccc5[nH]ncc5c4)cnc23)CC1 [compound 26] | 99 | 6.2 | 55 | 83 | 94 | 100 | 99 | 50 | 6.6 | 28 | 63 | > 90
CN1CCC(CNc2cc(Cl)nn3c(-c4cc5nc(Nc6ccccc6)[nH]c5cc4F)cnc23)CC1 [compound 31, 6-Chloro-3-(6-fluoro-2-(phenylamino)-1H-benzo[d]imidazol-5-yl)-N-((1-methylpiperidin-4-yl)methyl)imidazo[1,2-b]pyridazin-8-amine] | 93 | 73 | 75 | 81 | 91 | 100 | 95 | 87 | 89 | 63 | 77 | 
